Test results taken from ChEMBL document CHEMBL1201862, “PubChem BioAssay data set” (2004).
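Growth conditions: 96-well plates. Treatment: test compound, 48 hours, 5 concentrations. Analysis: linear interpolation between bracketing concentrations; unreached endpoints set to highest concentration. GI50 marks 50% less growth.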 The source made the active and inactive calls. Rule as the data show it: active = GI50 up to about 1.1 µM and inactive = higher.

Experiments:
Test in all cases: inhibition of tumour cell growth, NCI panel, 48 h
SNB-19 = tested on: SNB-19
SF-539 = tested on: SF-539
UO-31 = tested on: UO-31
T47D = tested on: T47D
NCI-H226 = tested on: NCI-H226
SNB-75 = tested on: SNB-75
IGROV-1 = tested on: IGROV-1
COLO 205 = tested on: COLO 205
K562 = tested on: K562
A549 = tested on: A549
MDA-N = tested on: MDA-N
MCF7 = tested on: MCF7
NCI-H23 = tested on: NCI-H23
Hs-578T = tested on: Hs-578T
HT-29 = tested on: HT-29
NCI/ADR-RES = tested on: NCI/ADR-RES
U-251 = tested on: U-251
CCRF-CEM = tested on: CCRF-CEM
SK-MEL-2 = tested on: SK-MEL-2
RXF 393 = tested on: RXF 393
SN12C = tested on: SN12C
SK-OV-3 = tested on: SK-OV-3
HCT-15 = tested on: HCT-15
SK-MEL-5 = tested on: SK-MEL-5
ACHN = tested on: ACHN
PC-3 = tested on: PC-3
DU-145 = tested on: DU-145
MOLT-4 = tested on: MOLT-4
HCT-116 = tested on: HCT-116
SK-MEL-28 = tested on: SK-MEL-28
OVCAR-5 = tested on: OVCAR-5
UACC-62 = tested on: UACC-62
UACC-257 = tested on: UACC-257
HCC 2998 = tested on: HCC 2998
NCI-H522 = tested on: NCI-H522
MDA-MB-231 = tested on: MDA-MB-231
BT-549 = tested on: BT-549
TK-10 = tested on: TK-10
SF-295 = tested on: SF-295
EKVX = tested on: EKVX
Malme-3M = tested on: Malme-3M
SR = tested on: SR
KM12 = tested on: KM12
NCI-H460 = tested on: NCI-H460
LOX IMVI = tested on: LOX IMVI
SF-268 = tested on: SF-268
OVCAR-8 = tested on: OVCAR-8
MDA-MB-435 = tested on: MDA-MB-435
OVCAR-3 = tested on: OVCAR-3
OVCAR-4 = tested on: OVCAR-4
HOP-92 = tested on: HOP-92
CAKI-1 = tested on: CAKI-1
HL-60 = tested on: HL-60
SW-620 = tested on: SW-620
786-0 = tested on: 786-0
HOP-62 = tested on: HOP-62
RPMI-8226 = tested on: RPMI-8226
A498 = tested on: A498
M14 = tested on: M14

`CC(/C=N/N(C)C1=NCCCCN1)=N/N(C)C1=NCCCCN1` was tested, and the GI50 (SNB-19) was > 100 µM (inactive), the GI50 (SF-539) was > 100 µM (inactive) and the GI50 (UO-31) was > 100 µM (inactive). For the same compound, the GI50 (T47D) was > 100 µM (inactive), the GI50 (NCI-H226) was > 100 µM (inactive) and the GI50 (SNB-75) was > 100 µM (inactive). The GI50 (IGROV-1) was > 100 µM (inactive), the GI50 (COLO 205) was > 100 µM (inactive) and the GI50 (K562) was > 100 µM (inactive). The GI50 (A549) was > 100 µM (inactive), the GI50 (MDA-N) was > 100 µM (inactive) and the GI50 (MCF7) was > 100 µM (inactive). The GI50 (NCI-H23) was > 100 µM (inactive), the GI50 (Hs-578T) was > 100 µM (inactive) and the GI50 (HT-29) was > 100 µM (inactive). The GI50 (NCI/ADR-RES) was > 100 µM (inactive), the GI50 (U-251) was > 100 µM (inactive) and the GI50 (CCRF-CEM) was > 100 µM (inactive). The GI50 (SK-MEL-2) was > 100 µM (inactive), the GI50 (RXF 393) was > 100 µM (inactive) and the GI50 (SN12C) was > 100 µM (inactive). The GI50 (SK-OV-3) was > 100 µM (inactive), the GI50 (HCT-15) was greater than 100 µM and the GI50 (SK-MEL-5) was > 100 µM (inactive). For the same compound, the GI50 (ACHN) was > 100 µM (inactive), the GI50 (PC-3) was > 100 µM (inactive) and the GI50 (DU-145) was > 100 µM (inactive). The GI50 (MOLT-4) was > 100 µM (inactive), the GI50 (HCT-116) was > 100 µM (inactive) and the GI50 (SK-MEL-28) was > 100 µM (inactive). For the same compound, the GI50 (OVCAR-5) was > 100 µM (inactive), the GI50 (UACC-62) was > 100 µM (inactive) and the GI50 (UACC-257) was > 100 µM (inactive). The GI50 (HCC 2998) was > 100 µM (inactive), the GI50 (NCI-H522) was > 100 µM (inactive) and the GI50 (MDA-MB-231) was > 100 µM (inactive). The GI50 (BT-549) was > 100 µM (inactive), the GI50 (TK-10) was > 100 µM (inactive) and the GI50 (SF-295) was > 100 µM (inactive). For the same compound, the GI50 (EKVX) was > 100 µM (inactive), the GI50 (Malme-3M) was > 100 µM (inactive) and the GI50 (SR) was > 100 µM (inactive). For the same compound, the GI50 (KM12) was > 100 µM (inactive), the GI50 (NCI-H460) was > 100 µM (inactive) and the GI50 (LOX IMVI) was > 100 µM (inactive). For the same compound, the GI50 (SF-268) was > 100 µM (inactive), the GI50 (OVCAR-8) was > 100 µM (inactive) and the GI50 (MDA-MB-435) was > 100 µM (inactive). The GI50 (OVCAR-3) was > 100 µM (inactive), the GI50 (OVCAR-4) was > 100 µM (inactive) and the GI50 (HOP-92) was > 100 µM (inactive). The GI50 (CAKI-1) was > 100 µM (inactive), the GI50 (HL-60) was > 100 µM (inactive) and the GI50 (SW-620) was > 100 µM (inactive). For the same compound, the GI50 (786-0) was > 100 µM (inactive), the GI50 (HOP-62) was > 100 µM (inactive) and the GI50 (RPMI-8226) was > 100 µM (inactive). The GI50 (A498) was 97.9 µM (inactive).
With `COc1c(O)cc2oc(-c3ccc(O)cc3)cc(=O)c2c1O` [HISPIDULIN] the GI50 (SNB-19) was 56.1 µM (inactive), the GI50 (SF-539) was 27 µM (inactive) and the GI50 (UO-31) was 25.1 µM (inactive). For the same compound, the GI50 (T47D) was 33.4 µM (inactive), the GI50 (NCI-H226) was 77.6 µM (inactive) and the GI50 (SNB-75) was 17.3 µM (inactive). The GI50 (IGROV-1) was 22.7 µM (inactive), the GI50 (COLO 205) was 90.4 µM (inactive) and the GI50 (K562) was 34.8 µM (inactive). For the same compound, the GI50 (A549) was 35.5 µM (inactive), the GI50 (MDA-N) was 37.2 µM (inactive) and the GI50 (MCF7) was 52 µM (inactive). The GI50 (NCI-H23) was 42.2 µM (inactive), the GI50 (Hs-578T) was 18.9 µM (inactive) and the GI50 (M14) was 38.6 µM (inactive). The GI50 (HT-29) was 45.7 µM (inactive), the GI50 (NCI/ADR-RES) was 36.1 µM (inactive) and the GI50 (U-251) was 42.7 µM (inactive). The GI50 (CCRF-CEM) was 20.6 µM (inactive), the GI50 (SK-MEL-2) was 27.2 µM (inactive) and the GI50 (RXF 393) was 51.5 µM (inactive). The GI50 (SN12C) was 39.4 µM (inactive), the GI50 (SK-OV-3) was 48.2 µM (inactive) and the GI50 (HCT-15) was 38.7 µM. The GI50 (SK-MEL-5) was 15.5 µM (inactive), the GI50 (ACHN) was 26.8 µM (inactive) and the GI50 (PC-3) was 34.2 µM (inactive). The GI50 (DU-145) was 30.5 µM (inactive), the GI50 (MOLT-4) was 25.4 µM (inactive) and the GI50 (HCT-116) was 35.3 µM (inactive). For the same compound, the GI50 (SK-MEL-28) was 45.7 µM (inactive), the GI50 (OVCAR-5) was 75.2 µM (inactive) and the GI50 (UACC-62) was 19 µM (inactive). The GI50 (UACC-257) was > 100 µM (inactive), the GI50 (HCC 2998) was 28.7 µM (inactive) and the GI50 (NCI-H522) was 36.2 µM (inactive). For the same compound, the GI50 (MDA-MB-231) was 74.5 µM (inactive), the GI50 (BT-549) was 28.3 µM (inactive) and the GI50 (TK-10) was 39.2 µM (inactive). The GI50 (SF-295) was 44.1 µM (inactive), the GI50 (EKVX) was 8.07 µM (inactive) and the GI50 (Malme-3M) was 74.8 µM (inactive). For the same compound, the GI50 (SR) was 27.9 µM (inactive), the GI50 (KM12) was 31.5 µM (inactive) and the GI50 (NCI-H460) was 30.8 µM (inactive). For the same compound, the GI50 (LOX IMVI) was 39.2 µM (inactive), the GI50 (SF-268) was 46.6 µM (inactive) and the GI50 (MDA-MB-435) was 36.3 µM (inactive). The GI50 (OVCAR-3) was 44.1 µM (inactive), the GI50 (OVCAR-4) was 35.8 µM (inactive) and the GI50 (HOP-92) was 2.91 µM (inactive). The GI50 (HL-60) was 24.5 µM (inactive), the GI50 (SW-620) was 34.1 µM (inactive) and the GI50 (786-0) was 60.1 µM (inactive). The GI50 (HOP-62) was 46.7 µM (inactive), the GI50 (RPMI-8226) was 46.3 µM (inactive) and the GI50 (A498) was 2.57 µM (inactive).
